Experimental data taken from US20080208039A1, “System and method of performing therapeutic endovascular interventions” (Wisconsin Alumni Research Foundation, priority 2007, published 2008).

Assay: Diffusion of a fluorescent probe in swollen gelatin gel by FRAP
Assay type: physicochemical
Source text: To assess the stability of DTPA[Gd(III)] in the gelatin coating, the diffusion of a fluorescence probe in gelatin was studied by the technique of fluorescence recovery after photobleaching (FRAP). The instrument and data analysis scheme are described in Kim, S. H. and Yu, H., J. Phys. Chem. 1992, 96, 4034, which is hereby fully incorporated by reference. Fluorescein was used as the fluorescence probe due, in part, to its molecular size being roughly the same as that of DTPA[Gd(III)].
The focus of the study was to examine the possible retardation effects of gelatin concentration and cross-link density on the diffusion, which was determined at room temperature, i.e., below the gel point of gelatin. The diffusion of fluorescein probe slows down with the increase of gelatin concentration. The diffusion coefficient decreases from 1.5×10-10 to 9×10-12 m2s-1 when the concentration of gelatin increases from 9% to 40%. […] Accordingly, the probe diffusion is more likely controlled by the concentration of gelatin rather than the cross-link density. On the other hand, the cross-link density may determine the swelling ratio of gelatin, i.e., the concentration of gelatin in aqueous solution. […]

Row | time to diffuse out of the gelatin coating (coating thickness 60 μm, diffusion coefficient 9×10-12 m2s-1) | fluorescence remaining in gelatin films after soaking (gelatin films soaked in water for 18 hours, including films not cross-linked) | SMILES
1 | about 67 seconds | – | O=C(O)CN(CCN(CC(=O)O)CC(=O)O)CCN(CC(=O)O)CC(=O)O [DTPA, diethylenetriaminepentaacetic acid]
2 | – | still fluorescence signal | O=C1OC2(c3ccc(O)cc3Oc3cc(O)ccc32)c2ccccc21 [fluorescein]
